Laboratory results published in article PMC9401498 (Clinical Cancer Research, 2021).
“Also recorded” adds a separate entry of the source.

System: patients with advanced and/or treatment-refractory solid tumors
Experiment: Safety and tolerability: adverse events
Format: in vivo, human
[1] = TID-fasted (n = 32), All grades

O=C(Cc1cccc(OC(F)(F)F)c1)Nc1ccc(CCCCc2nnc(NC(=O)Cc3ccccn3)s2)nn1 [telaglenastat, Telaglenastat]
Patients with dose reductions (17 of 120 patients): 14% | Patients with dose interruptions (50 of 120 patients, primarily due to AEs): 42% | Maximum tolerated dose (MTD) (100–800 mg TID-fasted, 600–1,000 mg BID-fed): not reached; also recorded: not established | Abdominal distension (treatment-related AE) (BID-fed (n = 88), All grades): 2 (2.3) n (%) | Activated partial thromboplastin time prolonged (treatment-related AE) (BID-fed (n = 88), All grades): 2 (2.3) n (%) | Alanine aminotransferase increased (treatment-related AE) (BID-fed (n = 88), All grades): 14 (15.9) n (%) | Ammonia increased (treatment-related AE) (BID-fed (n = 88), All grades): 2 (2.3) n (%) | Anemia (treatment-related AE) (BID-fed (n = 88), All grades): 5 (5.7) n (%) | Aspartate aminotransferase increased (treatment-related AE) (BID-fed (n = 88), All grades): 10 (11.4) n (%) | Blood alkaline phosphatase increased (treatment-related AE) (BID-fed (n = 88), All grades): 6 (6.8) n (%) | Blood bilirubin increased (treatment-related AE) (BID-fed (n = 88), All grades): 3 (3.4) n (%) | Blood creatinine increased (treatment-related AE) (BID-fed (n = 88), All grades): 4 (4.5) n (%) | Constipation (treatment-related AE) (BID-fed (n = 88), All grades): 3 (3.4) n (%) | Decreased appetite (treatment-related AE) (BID-fed (n = 88), All grades): 8 (9.1) n (%) | Diarrhea (treatment-related AE) (BID-fed (n = 88), All grades): 2 (2.3) n (%) | Dysgeusia (treatment-related AE) (BID-fed (n = 88), All grades): 2 (2.3) n (%) | Dyspepsia (treatment-related AE) (BID-fed (n = 88), All grades): 2 (2.3) n (%) | Fatigue (treatment-related AE) (BID-fed (n = 88), All grades): 21 (23.9) n (%) | Gastroesophageal reflux disease (treatment-related AE) (BID-fed (n = 88), All grades): 2 (2.3) n (%) | Hypomagnesemia (treatment-related AE) (BID-fed (n = 88), All grades): 4 (4.5) n (%) | Hyponatremia (treatment-related AE) (BID-fed (n = 88), All grades): 2 (2.3) n (%) | Nausea (treatment-related AE) (BID-fed (n = 88), All grades): 21 (23.9) n (%) | Neuropathy peripheral (treatment-related AE) (BID-fed (n = 88), All grades): 2 (2.3) n (%) | Patients with ≥1 treatment-emergent AE (BID-fed (n = 88), All grades): 84 (95.5) n (%) | Patients with ≥1 treatment-related AE (BID-fed (n = 88), All grades): 64 (72.7) n (%) | Photophobia (treatment-related AE) (BID-fed (n = 88), All grades): 12 (13.6) n (%) | Photopsia (treatment-related AE) (BID-fed (n = 88), All grades): 2 (2.3) n (%) | Thrombocytopenia (treatment-related AE) (BID-fed (n = 88), All grades): 4 (4.5) n (%) | Vision blurred (treatment-related AE) (BID-fed (n = 88), All grades): 3 (3.4) n (%) | Vomiting (treatment-related AE) (BID-fed (n = 88), All grades): 5 (5.7) n (%) | Weight decreased (treatment-related AE) (BID-fed (n = 88), All grades): 3 (3.4) n (%) | γ-Glutamyltransferase increased (treatment-related AE) (BID-fed (n = 88), All grades): 7 (8.0) n (%) | Abdominal distension (treatment-related AE) (BID-fed (n = 88), Grade 3): 0 n (%) | Activated partial thromboplastin time prolonged (treatment-related AE) (BID-fed (n = 88), Grade 3): 0 n (%) | Alanine aminotransferase increased (treatment-related AE) (BID-fed (n = 88), Grade 3): 2 (2.3) n (%) | Ammonia increased (treatment-related AE) (BID-fed (n = 88), Grade 3): 0 n (%) | Anemia (treatment-related AE) (BID-fed (n = 88), Grade 3): 1 (1.1) n (%) | Aspartate aminotransferase increased (treatment-related AE) (BID-fed (n = 88), Grade 3): 1 (1.1) n (%) | Blood alkaline phosphatase increased (treatment-related AE) (BID-fed (n = 88), Grade 3): 1 (1.1) n (%) | Blood bilirubin increased (treatment-related AE) (BID-fed (n = 88), Grade 3): 0 n (%) | Blood creatinine increased (treatment-related AE) (BID-fed (n = 88), Grade 3): 0 n (%) | Constipation (treatment-related AE) (BID-fed (n = 88), Grade 3): 0 n (%) | Decreased appetite (treatment-related AE) (BID-fed (n = 88), Grade 3): 0 n (%) | Diarrhea (treatment-related AE) (BID-fed (n = 88), Grade 3): 0 n (%) | Dysgeusia (treatment-related AE) (BID-fed (n = 88), Grade 3): 0 n (%) | Dyspepsia (treatment-related AE) (BID-fed (n = 88), Grade 3): 0 n (%) | Fatigue (treatment-related AE) (BID-fed (n = 88), Grade 3): 0 n (%) | Gastroesophageal reflux disease (treatment-related AE) (BID-fed (n = 88), Grade 3): 0 n (%) | Hypomagnesemia (treatment-related AE) (BID-fed (n = 88), Grade 3): 0 n (%) | Hyponatremia (treatment-related AE) (BID-fed (n = 88), Grade 3): 0 n (%) | Nausea (treatment-related AE) (BID-fed (n = 88), Grade 3): 0 n (%) | Neuropathy peripheral (treatment-related AE) (BID-fed (n = 88), Grade 3): 0 n (%) | Patients with ≥1 treatment-emergent AE (BID-fed (n = 88), Grade 3): 28 (31.8) n (%) | Patients with ≥1 treatment-related AE (BID-fed (n = 88), Grade 3): 3 (3.4) n (%) | Photophobia (treatment-related AE) (BID-fed (n = 88), Grade 3): 0 n (%) | Photopsia (treatment-related AE) (BID-fed (n = 88), Grade 3): 0 n (%) | Thrombocytopenia (treatment-related AE) (BID-fed (n = 88), Grade 3): 0 n (%) | Vision blurred (treatment-related AE) (BID-fed (n = 88), Grade 3): 0 n (%) | Vomiting (treatment-related AE) (BID-fed (n = 88), Grade 3): 0 n (%) | Weight decreased (treatment-related AE) (BID-fed (n = 88), Grade 3): 0 n (%) | γ-Glutamyltransferase increased (treatment-related AE) (BID-fed (n = 88), Grade 3): 2 (2.3) n (%) | Abdominal distension (treatment-related AE) (BID-fed (n = 88), Grade 4): 0 n (%) | Activated partial thromboplastin time prolonged (treatment-related AE) (BID-fed (n = 88), Grade 4): 0 n (%) | Alanine aminotransferase increased (treatment-related AE) (BID-fed (n = 88), Grade 4): 0 n (%) | Ammonia increased (treatment-related AE) (BID-fed (n = 88), Grade 4): 0 n (%) | Anemia (treatment-related AE) (BID-fed (n = 88), Grade 4): 0 n (%) | Aspartate aminotransferase increased (treatment-related AE) (BID-fed (n = 88), Grade 4): 0 n (%) | Blood alkaline phosphatase increased (treatment-related AE) (BID-fed (n = 88), Grade 4): 0 n (%) | Blood bilirubin increased (treatment-related AE) (BID-fed (n = 88), Grade 4): 0 n (%) | Blood creatinine increased (treatment-related AE) (BID-fed (n = 88), Grade 4): 0 n (%) | Constipation (treatment-related AE) (BID-fed (n = 88), Grade 4): 0 n (%) | Decreased appetite (treatment-related AE) (BID-fed (n = 88), Grade 4): 0 n (%) | Diarrhea (treatment-related AE) (BID-fed (n = 88), Grade 4): 0 n (%) | Dysgeusia (treatment-related AE) (BID-fed (n = 88), Grade 4): 0 n (%) | Dyspepsia (treatment-related AE) (BID-fed (n = 88), Grade 4): 0 n (%) | Fatigue (treatment-related AE) (BID-fed (n = 88), Grade 4): 0 n (%) | Gastroesophageal reflux disease (treatment-related AE) (BID-fed (n = 88), Grade 4): 0 n (%) | Hypomagnesemia (treatment-related AE) (BID-fed (n = 88), Grade 4): 0 n (%) | Hyponatremia (treatment-related AE) (BID-fed (n = 88), Grade 4): 0 n (%) | Nausea (treatment-related AE) (BID-fed (n = 88), Grade 4): 0 n (%) | Neuropathy peripheral (treatment-related AE) (BID-fed (n = 88), Grade 4): 0 n (%) | Patients with ≥1 treatment-emergent AE (BID-fed (n = 88), Grade 4): 5 (5.7) n (%) | Patients with ≥1 treatment-related AE (BID-fed (n = 88), Grade 4): 0 n (%) | Photophobia (treatment-related AE) (BID-fed (n = 88), Grade 4): 0 n (%) | Photopsia (treatment-related AE) (BID-fed (n = 88), Grade 4): 0 n (%) | Thrombocytopenia (treatment-related AE) (BID-fed (n = 88), Grade 4): 0 n (%) | Vision blurred (treatment-related AE) (BID-fed (n = 88), Grade 4): 0 n (%) | Vomiting (treatment-related AE) (BID-fed (n = 88), Grade 4): 0 n (%) | Weight decreased (treatment-related AE) (BID-fed (n = 88), Grade 4): 0 n (%) | γ-Glutamyltransferase increased (treatment-related AE) (BID-fed (n = 88), Grade 4): 0 n (%) | Grade 3/4 ALT increase (BID-fed schedule): 2% | Grade 3/4 AST increase (BID-fed schedule): 1% | Incidence of treatment-related grade 3/4 AEs (BID-fed, 3/88): 3% | Abdominal distension (treatment-related AE) [1]: 0 n (%) | Activated partial thromboplastin time prolonged (treatment-related AE) [1]: 0 n (%)
